Reference: ChEMBL document CHEMBL5665443, “Enzyme Inhibitor Single Concentration assay results for EUbOPEN Chemogenomics Library” (2024)
Several values for one entry are separate records, joined by “and”; a condition that tells them apart may be missing. Equal entries are not always repeated.

Legend:
Details in all cases: Compound Concentration 10.0 uM, Hit No
[1] = target: T1, Endonuclease III-like protein 1 (Homo sapiens) (UniProt P78549);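 also: enzyme assay tracking NTHL1 cutting and release of a quenched double-stranded DNA oligo substrate, read as fluorescence at 594 nm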
T1 sequence (whole entry): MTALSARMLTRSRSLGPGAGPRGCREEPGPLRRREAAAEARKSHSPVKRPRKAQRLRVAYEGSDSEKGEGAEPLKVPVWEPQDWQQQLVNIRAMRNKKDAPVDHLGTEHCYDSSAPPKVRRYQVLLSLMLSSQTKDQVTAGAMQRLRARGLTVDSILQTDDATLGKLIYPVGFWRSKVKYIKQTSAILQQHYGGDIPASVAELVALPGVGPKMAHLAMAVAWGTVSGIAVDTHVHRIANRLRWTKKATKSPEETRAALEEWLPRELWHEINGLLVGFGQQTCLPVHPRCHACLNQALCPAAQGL
Description: Inhibition of NTHL1 by quantifying inhibition of NTHL1-mediated cleavage and dissociation of quenched duplex DNA oligonucleotides, measured as fluorescence at 594 nm.

[2] = target: Uracil-DNA glycosylase (Homo sapiens) (UniProt P13051);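 also: UNG excision on a quenched double-stranded DNA oligo probe, with APE1 added for strand incision and turnover, read as fluorescence at 594 nm as strands separate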
Sequence of Uracil-DNA glycosylase (Homo sapiens) (P13051 whole entry): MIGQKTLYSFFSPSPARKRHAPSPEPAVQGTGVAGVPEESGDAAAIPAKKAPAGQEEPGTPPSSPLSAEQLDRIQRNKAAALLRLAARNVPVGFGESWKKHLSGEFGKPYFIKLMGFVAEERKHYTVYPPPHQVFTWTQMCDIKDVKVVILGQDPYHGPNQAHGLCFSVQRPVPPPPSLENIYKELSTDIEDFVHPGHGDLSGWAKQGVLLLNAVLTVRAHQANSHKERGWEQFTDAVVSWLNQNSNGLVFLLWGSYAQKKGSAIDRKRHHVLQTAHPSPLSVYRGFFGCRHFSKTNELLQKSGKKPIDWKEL
Description: Inhibition of UNG by quantifying inhibition of UNG-mediated cleavage and dissociation of quenched duplex DNA oligonucleotides, measured as fluorescence at 594 nm. To generate a functional strand incision and increase turn-over this assay is coupled to APE1.

[3] = target: G/T mismatch-specific thymine DNA glycosylase (Homo sapiens) (UniProt Q13569);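 also: human TDG cleavage of quenched duplex DNA oligonucleotides coupled to APE1, strand release read as fluorescence at 594 nm, inhibition of TDG activity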
Sequence of G/T mismatch-specific thymine DNA glycosylase (Homo sapiens) (Q13569 whole entry): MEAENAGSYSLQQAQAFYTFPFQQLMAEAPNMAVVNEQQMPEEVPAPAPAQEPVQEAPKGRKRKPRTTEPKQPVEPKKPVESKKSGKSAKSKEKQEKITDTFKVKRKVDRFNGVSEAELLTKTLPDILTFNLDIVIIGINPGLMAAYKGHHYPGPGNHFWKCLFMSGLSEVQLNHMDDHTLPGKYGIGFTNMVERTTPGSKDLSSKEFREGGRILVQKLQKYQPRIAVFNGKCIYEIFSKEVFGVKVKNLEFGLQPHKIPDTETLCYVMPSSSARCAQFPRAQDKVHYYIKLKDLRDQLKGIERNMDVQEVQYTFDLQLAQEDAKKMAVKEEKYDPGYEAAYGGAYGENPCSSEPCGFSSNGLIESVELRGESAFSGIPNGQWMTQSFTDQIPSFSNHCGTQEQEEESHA
Description: Inhibition of TDG by quantifying inhibition of TDG-mediated cleavage and dissociation of quenched duplex DNA oligonucleotides, measured as fluorescence at 594 nm. To generate a functional strand incision and increase turn-over this assay is coupled to APE1.

[4] = target: T2, Endonuclease 8-like 2 (Homo sapiens) (UniProt Q969S2);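 also: fluorescence at 594 nm reports NEIL2 cutting and release of a quenched double-stranded DNA oligo substrate, reduced signal read as inhibition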
T2 sequence (whole entry): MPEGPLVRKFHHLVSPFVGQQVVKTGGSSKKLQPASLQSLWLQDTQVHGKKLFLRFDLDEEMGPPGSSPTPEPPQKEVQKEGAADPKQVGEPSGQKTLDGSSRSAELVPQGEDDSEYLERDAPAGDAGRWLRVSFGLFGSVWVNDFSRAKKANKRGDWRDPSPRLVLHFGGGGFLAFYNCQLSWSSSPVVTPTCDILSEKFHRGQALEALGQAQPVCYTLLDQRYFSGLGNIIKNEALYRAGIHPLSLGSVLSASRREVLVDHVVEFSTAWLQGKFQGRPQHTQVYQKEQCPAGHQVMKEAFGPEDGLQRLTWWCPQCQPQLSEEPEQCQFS
Description: Inhibition of NEIL2 by quantifying inhibition of NEIL2-mediated cleavage and dissociation of quenched duplex DNA oligonucleotides, measured as fluorescence at 594 nm.

[5] = target: T3, Single-strand selective monofunctional uracil DNA glycosylase (Homo sapiens) (UniProt Q53HV7);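 also: enzymatic SMUG1 assay coupled with APE1, reading fluorescence at 594 nm released when a quenched double-stranded DNA oligonucleotide substrate is cleaved and separated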
T3 sequence (whole entry): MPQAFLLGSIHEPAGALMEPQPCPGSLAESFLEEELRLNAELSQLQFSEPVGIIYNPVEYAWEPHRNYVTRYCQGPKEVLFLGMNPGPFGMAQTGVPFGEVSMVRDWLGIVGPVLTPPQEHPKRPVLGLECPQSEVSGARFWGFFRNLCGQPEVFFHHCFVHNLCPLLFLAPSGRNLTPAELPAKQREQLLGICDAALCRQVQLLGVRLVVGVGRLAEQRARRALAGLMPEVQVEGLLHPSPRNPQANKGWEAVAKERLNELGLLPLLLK
Description: Inhibition of SMUG1 by quantifying inhibition of SMUG1-mediated cleavage and dissociation of quenched duplex DNA oligonucleotides, measured as fluorescence at 594 nm. To generate a functional strand incision and increase turn-over this assay is coupled to APE1.

[6] = target: N-glycosylase/DNA lyase (Homo sapiens) (UniProt O15527);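 also: OGG1 cleavage of a quenched duplex DNA oligonucleotide, coupled to APE1 for strand incision, read as fluorescence at 594 nm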
Sequence of N-glycosylase/DNA lyase (Homo sapiens) (O15527 whole entry): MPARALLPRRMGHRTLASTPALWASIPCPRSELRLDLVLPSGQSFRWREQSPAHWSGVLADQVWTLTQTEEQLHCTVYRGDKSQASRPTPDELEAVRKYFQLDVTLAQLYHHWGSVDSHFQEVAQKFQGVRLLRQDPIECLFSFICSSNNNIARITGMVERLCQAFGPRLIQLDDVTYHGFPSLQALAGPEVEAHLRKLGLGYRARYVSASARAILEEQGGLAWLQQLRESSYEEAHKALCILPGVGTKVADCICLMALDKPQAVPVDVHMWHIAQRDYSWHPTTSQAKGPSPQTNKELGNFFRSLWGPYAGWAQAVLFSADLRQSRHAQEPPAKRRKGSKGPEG
Description: Inhibition of OGG1 by quantifying inhibition of OGG1-mediated cleavage and dissociation of quenched duplex DNA oligonucleotides, measured as fluorescence at 594 nm. To generate a functional strand incision and increase turn-over this assay is coupled to APE1.

[7] = target: Endonuclease 8-like 1 (Homo sapiens) (UniProt Q96FI4);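 also: fluorescence at 594 nm from quenched duplex DNA oligonucleotides released by NEIL1 cleavage and strand separation, reported as reduction of this enzyme activity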
Sequence of Endonuclease 8-like 1 (Homo sapiens) (Q96FI4 whole entry): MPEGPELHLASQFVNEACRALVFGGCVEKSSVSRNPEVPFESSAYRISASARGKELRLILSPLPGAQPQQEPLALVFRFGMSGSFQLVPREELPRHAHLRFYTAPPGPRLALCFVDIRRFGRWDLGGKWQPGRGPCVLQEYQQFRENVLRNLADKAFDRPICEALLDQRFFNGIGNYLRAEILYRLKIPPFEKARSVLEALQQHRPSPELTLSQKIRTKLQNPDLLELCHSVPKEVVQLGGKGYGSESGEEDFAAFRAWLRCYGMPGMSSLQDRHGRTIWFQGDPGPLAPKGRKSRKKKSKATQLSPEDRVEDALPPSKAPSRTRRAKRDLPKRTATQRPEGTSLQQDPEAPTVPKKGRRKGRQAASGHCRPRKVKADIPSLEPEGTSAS
Description: Inhibition of NEIL1 by quantifying inhibition of NEIL1-mediated cleavage and dissociation of quenched duplex DNA oligonucleotides, measured as fluorescence at 594 nm.

| SMILES | inhibition [1] [%] | inhibition [2] | inhibition [3] [%] | inhibition [4] | inhibition [5] [%] | inhibition [6] | inhibition [7] |
| --- | --- | --- | --- | --- | --- | --- | --- |
| COc1cc(Nc2nccc(-c3cnn4nc(OC)ccc34)n2)cc(C(F)(F)F)c1 | 0.785 | -0.0969% | 8.41 | -0.842% | 1.75 | 8.51% | 11.1% |
| OC1(c2ccc(Cl)cc2)CCN(Cc2c[nH]c3ccccc23)CC1 | 7.05 | -8.06% | 17.2 | 5.51% | -1.92 | -9.04% | -5.1% |
| O=C(Nc1ccc(-n2nc(C(F)(F)F)cc2C(F)(F)F)cc1)c1ccncc1F | -4.39 | -0.503% | – | -8.25% | -4.65 | -5.81% | 3.86% |
| CN(C)C(=O)C(CCN1CCC(O)(c2ccc(Cl)cc2)CC1)(c1ccccc1)c1ccccc1 | 28.3 | -5.39% | 5.3 | 7.75% | -1.44 | -5.28% | 7.8% |
| N=C(N)NCCC[C@@H](NC(=O)C(c1ccccc1)c1ccccc1)C(=O)NCc1ccc(CNC(N)=O)cc1 | 11.3 | -1.81% | – | -2.13% | 0.0989 | -4.9% | 11.1% |
| C[C@@H](O[C@H]1OCCN(Cc2n[nH]c(=O)[nH]2)[C@H]1c1ccc(F)cc1)c1cc(C(F)(F)F)cc(C(F)(F)F)c1 | -1.01 | -3.75% | 0.716 | 8.5% | -5.17 | -7.13% | 5.88% |
| O=C(N[C@H](Cc1ccc(Cl)cc1)C(=O)N1CCC(Cn2cncn2)(C2CCCCC2)CC1)[C@H]1Cc2ccccc2CN1 | -6.04 | -1.71% | – | 0.159% | 10.8 | 6.85% | 5.49% |
| S=C(NCCCc1c[nH]cn1)NCCCN(Cc1ccc(Cl)c(Cl)c1)c1ccc(Br)cn1 | 7.05 | -7.82% and -8.52% | -1.74 | -7.72% and 0.265% | 0.354 | -8.08% and 0.522% | -8.51% and -1.24% |
| O=C1O[C@]2(CC[C@H](C(=O)Nc3ccn(-c4ccccc4F)n3)CC2)c2cnccc21 | -1.74 | -8.76% | 1.4 | -7.47% | 3.16 | -9.12% | -8.51% |
| CN(C)S(=O)(=O)c1ccc(NC(=S)N2CCC(C(O)(c3ccccc3)c3ccccc3)CC2)cc1 | 16.6 | -7.47% | -1.66 | 0.265% | 3.26 | -3.65% | -0.797% |
| COCC(=O)NC/C=C/c1ccc2ncnc(Nc3ccc(Oc4ccc(C)nc4)c(C)c3)c2c1 | 1.48 | 9.27% | 11.2 | – | 21.7 | 5.64% | -8.05% |
| NCCCNCCCCNCCC(=O)NCCCCCNC(=O)[C@H](CC(N)=O)NC(=O)Cc1ccc(O)cc1O | -0.258 | -1.11% | – | -3.66% | -7.3 | 0.0747% | 0.898% |
| Cc1onc(O)c1CC(N)C(=O)O (stereo unspecified) | -3.56 | -3.91% | 5.29 | -2.64% | -3.23 | -2.69% | -4.58% |
| N#Cc1ccc(Cn2ccc(NC(=O)Cc3ccc(C4(C(F)(F)F)CC4)cc3)n2)nc1 | 17.1 | -0.478% | -8.44 | -3.66% | -0.24 | -2.87% | 4.9% |
| CN1C[C@H](C(=O)N[C@]2(C)O[C@@]3(O)[C@@H]4CCCN4C(=O)[C@H](Cc4ccccc4)N3C2=O)C[C@@H]2c3cccc4[nH]cc(c34)C[C@H]21 | 15.8 | -3.4% | 7.37 | 7% | 0.306 | -8.52% | 9.88% |
| CC(C)Oc1ccc(-c2nn([C@@H](C)c3oc4ccc(F)cc4c(=O)c3-c3cccc(F)c3)c3ncnc(N)c23)cc1F | 8.46 | 6.08% | 80.6 | – | 23.6 | 8.77% | -4.09% |
